The numbers were not newly measured in patent US20100055044A1, “Ruthenium compounds and compositions” (priority 2008, published 2010), which cites them from elsewhere.

Where two headings read alike, the source gives them in different places.

The test system of this data set is Alveolar adenocarcinoma, breast adenocarcinoma, uterine carcinosarcoma, and endometrial carcinoma cells. The settings on record: 8 days.

In the case of `O=[O+][O-]` [ozone], the cell growth inhibition is, setting by setting: (0.3 ppm ozone in air) 40%; (0.5 ppm ozone in air) 60%; (0.8 ppm ozone in air, cancerous cells) 90%.
